Experimental data published in US10017768B2, “Method of treatment of chlamydial infections with selected EGFR inhibitors” (priority 2013, dated 2018).
“Also recorded” adds a separate entry of the source.

What was measured:
[1] = tested on: C. trachomatis; assay: Number, size and development of chlamydial inclusions in HeLa cells (confocal microscopy, ImageJ); format: cell-based, Chlamydia trachomatis strain D; details: for Inclusion size / Number of inclusions: C. trachomatis 24 h; for Inclusion development: total infection 24 h
Protocol: Propagation of Chlamydia and infections. Chlamydia trachomatis strain D (C. trachomatis) was propagated in HeLa cells grown in complete DMEM containing cyclohexamide (2 μg/ml). After 48 h, infected cells were harvested in sucrose-phosphate-glutamate (SPG) buffer, ruptured by vortexing with 3 mm glass beads. EBs were purified using previously described methods. The resulting bacterial pellet was resuspended in cold SPG buffer with a 21 to 22-gauge injection needle and stored in aliquots at −80° C. For infection, chlamydial EBs were added to cells in monolayer (80% confluence) at a multiplicity of infection (MOI) of 2-10 for all studies included here. Centrifugation was not used during the infection.
siRNA transfections. […] After 24 h, transfected cells were replated for a second round of transfection. After another 24 h, cells were infected with C. trachomatis and incubated for different time intervals (siRNA was maintained during the infection) according to the experimental design and were either stained for analyzing the inclusion development or prepared for Western blot analysis.
(§1) EGFR inhibitor treatment. […] The cells were pretreated with Erlotinib (25 μM) for 2 h and then infected with C. trachomatis. […] The inhibitor concentration was maintained during the infection. In certain experiments in which protein phosphorylation was investigated (FIG. 1, Panels B, D, F and G, FIG. 2, FIG. 3 and FIG. 11) the cells were serum starved overnight before drug treatment and C. trachomatis infection. […] Infected samples were used either for Western blotting or confocal imaging as described below. In another set of experiments the cells were infected with C. trachomatis followed by addition of Erlotinib at 2.5, 5 and 18 hpi. The total time for C. trachomatis infection was 24 h after which the samples were used for Western blotting or confocal imaging.
Immunofluorescence. Cells were infected with C. trachomatis as described above. The cells were washed 5 times with PBS and fixed at either 2.5 hpi or 24 hpi with 4% PFA for 10 min and blocked with 5% BSA for 1 h. After washing with TBS (50 mM Tris HCl, pH 7.4 and 150 mM NaCl) the cells were permeabilized for 15 min with 0.1% Triton X-100 and again washed with TBS followed by incubation with the indicated primary antibodies overnight. […] After repeated washings, the coverslips were mounted and analyzed using Zeiss LSM 510 or 710 laser scanning confocal microscope. For the studies shown in FIG. 1, Panel A, C. trachomatis inclusions were stained using the Pathfinder Chlamydia Culture Confirmation System (BioRad, Hercules, Calif., USA). At 24 h post C. trachomatis infection, cells were fixed with methanol for 10 min at room temperature and stained with the FITC conjugated pathfinder anti-chlamydial mAb according to the manufacturer's protocol (Bio-Rad, Hercules, Calif.). For the co-localization studies, 30,000 HeLa cells were seeded into EZ slide 4-well glass slides (Millipore, Temecula, Calif., USA) and infected with C. trachomatis as described above for 2.5 h the next day. Cells were fixed 24 h later in 4% formaldehyde in PBS for 15 min, permeabilized in 0.1% Triton X-100 for 10 min, and blocked in 1% BSA for 1 h at room temperature. […] The slides were mounted with Fluoromount mounting medium (Sigma Aldrich, St. Louis, Mo., USA), sealed, and examined using Zeiss 710 laser scanning confocal microscope.
BAPTA/AM and Ionomycin treatment. Monolayers of HeLa cells were washed with PBS and replaced with calcium free DMEM+1% FBS and pretreated for 1 h with BAPTA/AM (15 μM) followed by C. trachomatis infection for 24 h. BAPTA/AM concentration was maintained during the C. trachomatis infection. The control cells were treated with DMSO (<0.1%) followed by 24 h of C. trachomatis infection. In another set of experiments, HeLa cells were infected with C. trachomatis followed by addition of BAPTA/AM (15 μM) or DMSO at 2 or 5 hpi. The total time for C. trachomatis infection was 24 h.

[2] = tested on: intracellular calcium; assay: Intracellular calcium staining (fluorescence microscopy) in HeLa cells; format: cell-based, human
Protocol: Intracellular calcium staining. Cells were washed with calcium free incomplete DMEM and incubated with 2 μM Fluo-4 AM diluted in Ca^2++ free incomplete DMEM at 37° C. for 30 min. The cells were then washed with Ca^2++ free HBSS and analyzed for calcium levels using an Olympus IX71 fluorescence microscope.
BAPTA/AM and Ionomycin treatment. Monolayers of HeLa cells were washed with PBS and replaced with calcium free DMEM+1% FBS and pretreated for 1 h with BAPTA/AM (15 μM) followed by C. trachomatis infection for 24 h. BAPTA/AM concentration was maintained during the C. trachomatis infection. The control cells were treated with DMSO (<0.1%) followed by 24 h of C. trachomatis infection. In another set of experiments, HeLa cells were infected with C. trachomatis followed by addition of BAPTA/AM (15 μM) or DMSO at 2 or 5 hpi. The total time for C. trachomatis infection was 24 h. To induce mobilization of calcium from intracellular stores to the cytoplasm, cultured cells were pretreated for 1 h with 1 μg/ml Ionomycin before chlamydial infection. C. trachomatis-infected cells were washed three times with PBS after 24 hpi and processed for immunofluorescence as described above.

[3] = tested on: C. trachomatis; assay: Transmission electron microscopy of HeLa cells infected with C. trachomatis; format: cell-based, Chlamydia trachomatis strain D; details: C. trachomatis 24 h, vs respective controls
Protocol: Transmission electron microscopy. HeLa cells were infected with C. trachomatis as described above. […] The cells were then washed and post-fixed for 1 h in 1% osmic acid in 0.1 N Millonig's buffer followed by 1 h treatment with 1% uranyl acetate. […] Thin sections were then cut with a Reichert ultracut E microtome and stained with 1% uranyl acetate and Reynold's lead citrate solutions, followed by the analysis using 80 kV Tecnai Spirit BioTwin transmission electron microscope.

[4] = tested on: EGFR, PLCγ1, STAT5 and Akt; assay: Western blot of C. trachomatis-induced phosphorylation of EGFR and downstream effectors in HeLa cells; format: cell-based, human; details: 25 μM Erlotinib for 2 h followed by Ct infection for 2.5 h
Protocol: (§2) Immunoblotting. Cells were harvested and lysed in modified RIPA buffer (50 mM Tris, 150 mM NaCl, 1% sodium deoxycholate, 1% NP-40, 1 mM sodium fluoride) supplemented with protease inhibitor cocktail and phosphatase inhibitor tablet (Roche). For Western blotting of C. trachomatis antigens, the C. trachomatis-infected cells were lysed in 20 mM HEPES buffer (pH 8.0) containing 8 M urea supplemented with protease inhibitors. Cell lysates were incubated on ice for 1 h and then sonicated briefly. The soluble protein fraction was collected by centrifugation at 10,000 rpm. Total protein was estimated using the BCA method and equal amounts of proteins (10-20 μg) were processed for immunoblotting. Proteins were resolved on 10% SDS polyacrylamide gel and transferred onto a nitrocellulose membrane. The blot was blocked using 3% BSA and incubated with the indicated antibodies. ECL was used to detect the proteins according to the manufacturer's instructions.
EGFR inhibitor treatment. […] The cells were pretreated with Erlotinib (25 μM) for 2 h and then infected with C. trachomatis. […] The inhibitor concentration was maintained during the infection. In certain experiments in which protein phosphorylation was investigated (FIG. 1, Panels B, D, F and G, FIG. 2, FIG. 3 and FIG. 11) the cells were serum starved overnight before drug treatment and C. trachomatis infection. […]

[5] = tested on: F-actin; assay: Organization of F-actin at the chlamydial inclusion periphery (confocal microscopy); format: cell-based, human; details: C. trachomatis 24 h
Protocol: Immunofluorescence. Cells were infected with C. trachomatis as described above. The cells were washed 5 times with PBS and fixed at either 2.5 hpi or 24 hpi with 4% PFA for 10 min and blocked with 5% BSA for 1 h. After washing with TBS (50 mM Tris HCl, pH 7.4 and 150 mM NaCl) the cells were permeabilized for 15 min with 0.1% Triton X-100 and again washed with TBS followed by incubation with the indicated primary antibodies overnight. […] After repeated washings, the coverslips were mounted and analyzed using Zeiss LSM 510 or 710 laser scanning confocal microscope. For the studies shown in FIG. 1, Panel A, C. trachomatis inclusions were stained using the Pathfinder Chlamydia Culture Confirmation System (BioRad, Hercules, Calif., USA). At 24 h post C. trachomatis infection, cells were fixed with methanol for 10 min at room temperature and stained with the FITC conjugated pathfinder anti-chlamydial mAb according to the manufacturer's protocol (Bio-Rad, Hercules, Calif.). For the co-localization studies, 30,000 HeLa cells were seeded into EZ slide 4-well glass slides (Millipore, Temecula, Calif., USA) and infected with C. trachomatis as described above for 2.5 h the next day. Cells were fixed 24 h later in 4% formaldehyde in PBS for 15 min, permeabilized in 0.1% Triton X-100 for 10 min, and blocked in 1% BSA for 1 h at room temperature. […]

[6] = tested on: C. trachomatis; assay: Inside out staining: chlamydial attachment and entry into the host cell; format: cell-based, Chlamydia trachomatis strain D; details: HeLa cells, C. trachomatis 2.5 h
Protocol: Inside out staining. Differential staining of external and internalized bacteria was performed as described previously and using three independent studies. Briefly, cells were grown overnight in 2-well Lab-Tek chamber slides and treated with either EGFR inhibitors or siRNA as described above and subsequently infected with Chlamydia for 2.5 h at 37° C. to allow for bacterial attachment and internalization. […] Infected cells were washed five times in PBS and fixed in 1% paraformaldehyde (PFA). After fixation, cells were blocked in 5% BSA for 1 h and then incubated with FITC-conjugated antibody against chlamydial EBs for 1 h to stain external EBs. Cells were then permeabilized with 0.1% Triton X-100, blocked again, and incubated with antibody against chlamydial LPS followed by incubation with rhodamine-conjugated anti-goat antibody to stain intracellular and extracellular EBs. Imaging was performed using confocal microscopy (Carl Zeiss, Germany). The quantification for the inside out experiments was performed manually based on the number of attached EBs observed per infected cell. The statistical analysis was based on imaging data collected from fifteen fields containing 3-10 cells per field as described below.
Similarly, fifteen random fields (3-10 cells per field) were used for the inside out experiments. All results are presented as mean±SEM. […]

[7] = tested on: chlamydial Hsp60; assay: Western blot analysis of chlamydial Hsp60 in infected HeLa cells; format: cell-based, Chlamydia trachomatis strain D
Protocol: as §2, §1

[8] = tested on: HeLa cells; assay: Cell viability assay (MTT); format: cell-based, human; details: 25 μM Erlotinib for 24 h
Protocol: Cell proliferation assay. To ensure that the dose of Erlotinib (25 μM) provided maximal inhibition without affecting cell viability, MTT assays were performed. HeLa cells were cultured for 24 h, treated with 25 μM Erlotinib and incubated at 37° C., 5% CO2 for 24 h. After washing the cells, the procedure for cell viability assay was followed as per manufacturer's instructions (Roche).

[9] = tested on: chlamydial EBs; assay: Control experiment: viability of elementary bodies (EBs) treated with Erlotinib and Cetuximab (Hsp60 Western blot); format: cell-based, Chlamydia trachomatis strain D; details: EBs with Erlotinib 25 μM or Cetuximab 20 μg/ml for 2.5 h, HeLa infection 24 h
Description: Control experiments. […] EB pellets were washed and resuspended in SPG buffer and used for subsequent HeLa cell infection. At 24 hpi cells were lysed for Western blotting of chlamydial Hsp60 antigen.

[10] = HeLa cells treated before infection (Erlotinib 25 μM, Cetuximab 20 μg/ml or siRNA), vs DMSO, IgG or control siRNA
[11] = HeLa cells pre-treated with BAPTA/AM 15 μM for 1 h, calcium free DMEM

C[C@H](CCC(=O)O)C[C@H](C)C[C@H](C)C(=O)/C=C(\O)[C@H](C)C[C@H](C)C/C=C/[C@@H](C)[C@@H](O)[C@@H](C)[C@@H](O)C[C@@H]1CC[C@@](C)([C@H]2CC[C@@](C)([C@@H](C)O)O2)O1 [Ionomycin]
Inclusion formation in EGFR siRNA treated cells with or without Ionomycin ([1]; HeLa cells, EGFR siRNA, Ionomycin 1 μg/ml 1 h pre-treatment, Ct 24 h): not able to rescue; also recorded: no significant difference | Intracellular free calcium (Fura-2/AM) ([2]; Ionomycin 1 μg/ml for 1 h): Increased intracellular free calcium

C#Cc1cccc(Nc2ncnc3cc(OCCOC)c(OCCOC)cc23)c1 [Erlotinib]
Inclusion size [1, 10]: Significant reduction | Number of inclusions [1, 10]: significantly reduced | Inclusion development ([1]; HeLa cells, Erlotinib added at 2.5 hpi): impaired regular inclusion formation and resulted in formation of numerous bacterial aggregates; also recorded: incomplete inclusion development and bacterial aggregates | Inclusion development ([1]; HeLa cells, Erlotinib added at 5 hpi): impaired regular inclusion formation and resulted in formation of numerous bacterial aggregates; also recorded: incomplete inclusion development and bacterial aggregates | Inclusion development ([1]; HeLa cells, Erlotinib added at 18 hpi): did not significantly affect; also recorded: Well-developed C. trachomatis inclusions | Inclusion morphology by transmission electron microscopy [3]: small inclusions; also recorded: smaller and less mature | EGFR phosphorylation induced by Ct infection [4]: an increase in EGFR phosphorylation upon Ct infection in the absence of Erlotinib but not in the presence of the drug | Assembly of F-actin at the inclusion periphery ([5]; HeLa cells with EGFR inhibition): altered | Chlamydial binding to the host cell surface (cell-associated bacteria, external+internalized) [6]: Significant reduction | Calcium signal in C. trachomatis-infected cells (Fluo-4 AM) ([2]; Erlotinib added at 2.5 and 5 hpi, stained at 24 hpi): significant drop in calcium signal; also recorded: weak calcium signal | Chlamydial Hsp60 levels ([7]; HeLa cells treated before infection, C. trachomatis 2.5 h): significant (P<0.001) reduction | Chlamydial Hsp60 ([7]; HeLa cells, Erlotinib 25 μM added at 2.5 hpi, total infection 24 h): Significantly lower expression; also recorded: Significant decrease | Chlamydial Hsp60 antigen ([7]; HeLa cells, Erlotinib 25 μM followed by Ct infection for 24 h): marked decrease | Viability of HeLa cells [8]: did not reduce the viability; also recorded: did not affect the viability | Chlamydial Hsp60 antigen load in cells infected with drug-treated vs untreated EBs (EB viability) [9]: comparable; also recorded: no difference

CC(=O)OCOC(=O)CN(CC(=O)OCOC(C)=O)c1ccccc1OCCOc1ccccc1N(CC(=O)OCOC(C)=O)CC(=O)OCOC(C)=O [BAPTA/AM]
Inclusion size [1, 11]: significant decrease; also recorded: significantly reduced | Number of inclusions [1, 11]: significant decrease; also recorded: significantly reduced | Inclusion development ([1]; HeLa cells, BAPTA/AM 15 μM added at 2 or 5 hpi, vs DMSO): Impaired inclusion formation; also recorded: impaired inclusion development | Assembly of F-actin at the inclusion periphery ([5]; HeLa cells pre-treated with BAPTA/AM for 1 h): diffused assembly of F-actin at the inclusion periphery
